The values that follow come from US20050065140A1, “Serotonine reuptake inhibitor” (priority 2001, published 2005).

For data set [1], the target named is T1, [^3H]paroxetine binding (serotonin reuptake), cerebral cortex membrane preparation (Rattus norvegicus, UniProt P31652).
T1 construct: 790 μl of the cerebral cortex membrane preparation (150 μg/tube in terms of protein); from tissue; host or cells: rat cerebral cortex membrane preparation
The data set is described as follows: Screening test using [^3H]paroxetine binding (Test Example 1). Particulars: [^3H]paroxetine 0.15 nM, test concentration not given. As to the method: Screening Test Using [^3H]Paroxetine Binding
The membrane preparation was prepared according to the method^1a) of D'amato et al. In detail, after a male rat was decapitated, the whole brain was immediately removed and the cerebral cortex was dissected therefrom under ice-cooling. A buffer solution (50 mM Tris-HCl (pH=7.4), 120 mM NaCl, 5 mM KCl) was added to the cerebral cortex in an amount of 25 times the wet weight of the cerebral cortex, followed by homogenization in an ice bath by the use of a Teflon-glass homogenizer. The homogenate was centrifuged at 4° C. and 45,000×g for 10 minutes, and the resulting precipitate was dispersed in an ice-cooled buffer solution (50 mM Tris-HCl (pH=7.4), 120 mM NaCl, 5 mM KCl) by the use of Hiscotron™, followed by centrifugation at 4° C. and 45,000×g for 10 minutes. The resulting precipitate was re-suspended and the washing procedure was repeated. The membrane preparation thus obtained was suspended in the same buffer solution as described above, and then subjected to cryopreservation at −80° C.
[^3H]paroxetine binding was measured according to the method^1b) of Habert E et al. In detail, 200 μl of a dilution (final concentration: 0.15 nM) of [^3H]paroxetine with 50 mM Tris-HCl (pH=7.4) buffer containing 120 mM NaCl and 5 mM KCl, 790 μl of the cerebral cortex membrane preparation (150 μg/tube in terms of protein), 10 μl of a solution of a test drug in dimethyl sulfoxide and 1 ml of the above-mentioned buffer solution were mixed to prepare a liquid having a total volume of 2 ml. After this liquid was allowed to react at room temperature for 60 minutes, it was immediately filtered by suction at a low pressure through glass fiber filter. The glass fiber filter was washed 4 times with 4 ml of the same buffer solution as above and then transferred to a glass vial containing 4 ml of ACS-II (Amersham), and the radioactivity remaining on the filter was measured with a liquid scintillation counter.
Non-specific binding of [^3H]paroxetine was defined as the amount of [^3H]paroxetine bound in the presence of 100 μM 5-HT.
(§1) Rate of binding inhibition was calculated by the following equation:
Rate of binding inhibition (%)=100−100×{[amount of [^3H]paroxetine bound in the presence of test substance]−[amount of [^3H]paroxetine bound in the presence of 100 μM 5-HT]/[amount of [^3H]paroxetine bound in the absence of test substance]−[amount of [^3H]paroxetine bound in the presence of 100 μM 5-HT]}

Data set [2] has as its target T2, serotonin 1A receptors ([^3H]8-OH-DPAT binding, hippocampus membrane preparation) (Rattus norvegicus, UniProt P19327).
T2 construct: 146 μl of the hippocampus membrane preparation (80 μg/tube in terms of protein); from tissue; host or cells: rat hippocampus membrane preparation
T2 sequence (P19327 1-422): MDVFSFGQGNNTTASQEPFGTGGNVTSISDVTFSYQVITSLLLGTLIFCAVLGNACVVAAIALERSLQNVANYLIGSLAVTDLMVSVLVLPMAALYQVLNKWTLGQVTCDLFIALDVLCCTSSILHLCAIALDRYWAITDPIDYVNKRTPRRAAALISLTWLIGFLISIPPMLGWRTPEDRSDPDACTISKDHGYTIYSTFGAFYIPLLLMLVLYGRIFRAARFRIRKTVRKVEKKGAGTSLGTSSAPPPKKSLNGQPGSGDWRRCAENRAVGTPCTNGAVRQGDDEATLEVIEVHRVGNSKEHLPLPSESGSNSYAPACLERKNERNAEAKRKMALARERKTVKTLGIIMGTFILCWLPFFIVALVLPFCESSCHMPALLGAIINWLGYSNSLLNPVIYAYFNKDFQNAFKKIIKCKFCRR
The data set can be described thus: [^3H]8-OH-DPAT binding test (Test Example 2). Particulars: [^3H]8-OH-DPAT 2 nM, test concentration not given. The method, then:
[^3H]8-OH-DPAT Binding Test
The test was carried out according to the method^2 of Hall M. D. et al. After about one week of pre-breeding, a male rat was decapitated and the brain was immediately removed. The hippocampus was dissected from the brain on ice, and 50 mM Tris-HCl (pH=7.4) was added to the hippocampus in an amount of 40 times the wet weight of the hippocampus, followed by homogenization (3 min, 1 stroke/min) in an ice bath by the use of a Teflon-glass homogenizer. Then, the homogenate was centrifuged (4° C.) at 40,000×g for 10 minutes. The resulting precipitate was dispersed in an ice-cooled buffer solution (50 mM Tris-HCl (pH=7.4)) by the use of Hiscotron™, followed by centrifugation (4° C.) at 40,000×g for 10 minutes. Moreover, the resulting precipitate was re-suspended and the washing procedure was repeated once. The precipitate thus obtained was dispersed in an ice-cooled buffer solution (50 mM Tris-HCl (pH=7.4)) by the use of Hiscotron™, and the resulting dispersion was incubated at 37° C. for 1 hour and then centrifuged (4° C.) at 40,000×g for 10 minutes. Furthermore, the resulting precipitate was re-suspended and the washing procedure was repeated once. The membrane preparation thus obtained was suspended in the same buffer solution as described above, and then subjected to cryopreservation at −80° C.
Measurement was carried out by using a liquid for reaction (total volume: 200 μl) obtained by adding 50 μl of [^3H]8-OH-DPAT (final concentration: 2 nM), 4 μl of a solution of a test drug and 146 μl of the hippocampus membrane preparation (80 μg/tube in terms of protein) to a buffer solution containing 50 mM Tris-HCl (pH=7.4) and 4 mM CaCl2. After the liquid for reaction was allowed to react at room temperature for 30 minutes, it was immediately filtered by suction at a low pressure through glass fiber filter. The glass fiber filter was washed twice with 250 μl of a buffer solution and then added to a glass vial containing 4 ml of ACS-II (Amersham), and the radioactivity bound to receptors and remaining on the filter was measured with a liquid scintillation counter. Non-specific binding of [^3H]8-OH-DPAT was defined as the amount of [^3H]8-OH-DPAT bound in the presence of 1 μM 8-OH-DPAT.
as §1
Rate of binding inhibition (%)=100−100×{[amount of [^3H]8-OH-DPAT bound in the presence of test substance]−[amount of [^3H]8-OH-DPAT bound in the presence of 1 μM 8-OH-DPAT]/[amount of [^3H]8-OH-DPAT bound in the absence of test substance]−[amount of [^3H]8-OH-DPAT bound in the presence of 1 μM 8-OH-DPAT]}

T1 sequence (P31652 whole entry): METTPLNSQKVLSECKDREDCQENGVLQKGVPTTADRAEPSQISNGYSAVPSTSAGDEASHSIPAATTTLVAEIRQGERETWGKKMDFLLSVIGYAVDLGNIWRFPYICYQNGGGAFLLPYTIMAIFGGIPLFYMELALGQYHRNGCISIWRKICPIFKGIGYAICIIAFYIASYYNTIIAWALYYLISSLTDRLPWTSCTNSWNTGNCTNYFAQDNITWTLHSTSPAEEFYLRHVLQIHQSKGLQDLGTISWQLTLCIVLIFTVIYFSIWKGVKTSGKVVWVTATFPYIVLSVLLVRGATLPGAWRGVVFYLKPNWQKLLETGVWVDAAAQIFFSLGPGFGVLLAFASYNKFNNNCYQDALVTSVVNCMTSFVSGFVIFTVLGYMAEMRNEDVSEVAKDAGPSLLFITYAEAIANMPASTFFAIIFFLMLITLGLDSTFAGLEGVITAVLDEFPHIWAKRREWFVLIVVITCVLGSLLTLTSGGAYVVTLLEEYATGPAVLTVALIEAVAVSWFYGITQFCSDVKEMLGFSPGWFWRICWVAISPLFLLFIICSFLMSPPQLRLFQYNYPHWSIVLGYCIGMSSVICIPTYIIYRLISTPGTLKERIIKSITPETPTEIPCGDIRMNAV

As to `COc1ccc(Br)c(CC2CCN(CCC3(CCO)CCCCC3)CC2)c1.Cl` [Example 60, 2-(1-(2-(4-(2-Bromo-5-methoxybenzyl)-piperidin-1-yl)ethyl)cyclohexyl)ethanol Hydrochloride], the “Rate of inhibition of [^3H]paroxetine binding (%)” value in data set [1] is reported as 91%. For the same compound, the “Rate of inhibition of [^3H]8-OH-DPAT binding (%)” value in data set [2] is on record as 98%.

Take `CCN(CC)[C@H]1CC[C@H](CCN2CCC(Cc3cc(OC)ccc3Br)CC2)CC1.Cl.Cl`: the melting point turned out to be 242 °C.

`COc1ccc(Br)c(CC2CCN(CCC3CCNCC3)CC2)c1.Cl.Cl` [Example 1, 4-(2-Bromo-5-methoxybenzyl)-1-(2-(4-piperidinyl)ethyl)piperidine Dihydrochloride]: the “Rate of inhibition of [^3H]paroxetine binding (%)” value in data set [1] came out at 81%. Besides, the “Rate of inhibition of [^3H]8-OH-DPAT binding (%)” value in data set [2] was determined as 47%.

`CCN[C@H]1CC[C@@H](CCN2CCC(Cc3cc(OC(C)C)ccc3Br)CC2)CC1.Cl.Cl` [Example 41, cis-N-(4-(2-(4-(2-bromo-5-isopropoxybenzyl)-piperidin-1-yl)ethyl)cyclohexyl)-N-ethylamine Dihydrochloride]: the melting point worked out at 247 °C. Also, the “Rate of inhibition of [^3H]paroxetine binding (%)” value in data set [1] is given as 78%. The “Rate of inhibition of [^3H]8-OH-DPAT binding (%)” value in data set [2] is 86%.

With `CCN(CC(F)(F)F)[C@H]1CC[C@H](CCN2CCC(Cc3cc(OC)ccc3Br)CC2)CC1.Cl.Cl`, the melting point is 209 °C.

Consider `CCOc1ccc(Br)c(CC2CCN(CC3CCc4ccccc4N3)CC2)c1.Cl.Cl` (stereo not drawn), for which the melting point was 228 °C.

Turning to `COc1ccc(N2CC(CN3CCC(Cc4cc(OC)ccc4Br)CC3)OC2=O)cc1.Cl` (stereo not drawn) [Example 72, 5-(4-(2-Bromo-5-methoxybenzyl)piperidin-1-yl)methyl-3-(4-methoxyphenyl)oxazolidin-2-one hydrochloride], the “Rate of inhibition of [^3H]paroxetine binding (%)” value in data set [1] was 99%. Besides, the “Rate of inhibition of [^3H]8-OH-DPAT binding (%)” value in data set [2] stood at 97%.

Compound `CCN[C@H]1CC[C@H](CCN2CCC(Cc3cc(OC(C)C)ccc3Br)CC2)CC1.Cl.Cl` displayed a melting point of 290 °C.

The compound `COc1ccc(Br)c(CC2CCN(CC[C@H]3CC[C@@H](CO)CC3)CC2)c1.Cl` registered a melting point of 209 °C.

Consider `COCC(=O)N[C@H]1CC[C@H](CCN2CCC(Cc3cc(OC)ccc3Br)CC2)CC1.Cl`, for which the melting point amounted to 132 °C.

With `CCN(C(C)=O)[C@H]1CC[C@H](CCN2CCC(Cc3cc(OC(C)C)ccc3Br)CC2)CC1.Cl` [Example 52, trans-N-(4-(2-(4-(2-bromo-5-isopropoxy-benzyl)piperidin-1-yl)ethyl)cyclohexyl)-N-ethylacetamide Hydrochloride], in data set [1], the “Rate of inhibition of [^3H]paroxetine binding (%)” value turned out to be 90%. The “Rate of inhibition of [^3H]8-OH-DPAT binding (%)” value in data set [2] is on record as 60%.

In turn, `COc1ccc(Br)c(CC2CCN(CC[C@H]3CC[C@@H](CCO)CC3)CC2)c1.Cl` [Example 63] returned a melting point of 172 °C.

Consider `CCN(CCO)[C@H]1CC[C@H](CCN2CCC(Cc3cc(OC)ccc3Br)CC2)CC1.Cl.Cl`, for which the melting point worked out at 259 °C.

Take `CCN[C@H]1CC[C@@H](CCCN2CCC(Cc3cc(OC)ccc3Br)CC2)CC1.Cl.Cl`: the melting point amounted to 234 °C.

Consider `CCN(CC)[C@H]1CC[C@H](CCN2CCC(Cc3cc(OC(C)C)ccc3Br)CC2)CC1.Cl.Cl`, for which the melting point stood at 253 °C.

On to `CCNC(=O)N1CCC(CCN2CCC(Cc3cc(OC)ccc3Br)CC2)CC1.Cl` [Example 32], for which, in data set [1], the “Rate of inhibition of [^3H]paroxetine binding (%)” value is 97%. Also, in data set [2], the “Rate of inhibition of [^3H]8-OH-DPAT binding (%)” value was 73%.

Compound `COc1ccc(Br)c(CC2CCN(CCC3(CCO)CCCC3)CC2)c1.Cl` displayed a melting point of 184 °C.

`Cl.Cl.Fc1ccc(Br)c(CC2CCN(CC3CCc4ccccc4N3)CC2)c1` (stereo not drawn) yielded a melting point of 245 °C.

Compound `COc1ccc(Br)c(CC2CCN(CCC[C@H]3CC[C@@H](N)CC3)CC2)c1.Cl.Cl` returned a melting point of 238 °C.

In turn, `CO[C@H]1CC[C@@H](CCCN2CCC(Cc3cc(OC(C)C)ccc3Br)CC2)CC1.Cl` gave a melting point of 134 °C.
